Test results as given in PubChem BioAssay AID1963838 (Molecular Pharmacology Branch, DTP, NCI, 2024).

System: 855422-203-R-J1-PDC complex spheroid viability
Test: Anticancer human tumor 855422-203-R-J1-PDC patient-derived bladder carcinoma cell line growth inhibition [POLQ]
Conditions: for IC50: curve of first compound; for viability, T/C: stronger effect = lower value
Method in brief: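 PDC + HUVEC + MSC complex spheroids; POLQ inhibitors ± partner drugs; top conc. at/near clinical Cmax, else 10 microM (SN-38 1 microM), half-log dilutions; 37 degrees C, 5% CO2.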

[1] = second compound 0.0316 µM, first compound 0.0316 µM
[2] = second compound 0.0316 µM, first compound 0.1 µM
[3] = second compound 0.0316 µM, first compound 0.316 µM
[4] = second compound 0.0316 µM, first compound 1 µM
[5] = second compound 0.0316 µM, first compound 3.16 µM
[6] = second compound 0.0316 µM, first compound 10 µM
[7] = second compound 0.1 µM, first compound 0.0316 µM
[8] = second compound 0.1 µM, first compound 0.1 µM
[9] = second compound 0.1 µM, first compound 0.316 µM
[10] = second compound 0.1 µM, first compound 1 µM
[11] = second compound 0.1 µM, first compound 3.16 µM
[12] = second compound 0.1 µM, first compound 10 µM
[13] = second compound 0.316 µM, first compound 0.0316 µM
[14] = second compound 0.316 µM, first compound 0.1 µM
[15] = second compound 0.316 µM, first compound 0.316 µM
[16] = second compound 0.316 µM, first compound 1 µM
[17] = second compound 0.316 µM, first compound 3.16 µM
[18] = second compound 0.316 µM, first compound 10 µM
[19] = second compound 1 µM, first compound 0.0316 µM
[20] = second compound 1 µM, first compound 0.1 µM
[21] = second compound 1 µM, first compound 0.316 µM
[22] = second compound 1 µM, first compound 1 µM
[23] = second compound 1 µM, first compound 3.16 µM
[24] = second compound 1 µM, first compound 10 µM
[25] = second compound 3.16 µM, first compound 0.0316 µM
[26] = second compound 3.16 µM, first compound 0.1 µM
[27] = second compound 3.16 µM, first compound 0.316 µM
[28] = second compound 3.16 µM, first compound 1 µM
[29] = second compound 3.16 µM, first compound 3.16 µM
[30] = second compound 3.16 µM, first compound 10 µM
[31] = second compound 10 µM, first compound 0.0316 µM
[32] = second compound 10 µM, first compound 0.1 µM
[33] = second compound 10 µM, first compound 0.316 µM
[34] = second compound 10 µM, first compound 1 µM
[35] = second compound 10 µM, first compound 3.16 µM
[36] = second compound 10 µM, first compound 10 µM
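Further: spheroids exposed to compounds for seven days before readout.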

C#Cc1c(F)ccc2cc(O)cc(-c3ncc4c(N5CC6CCC(C5)N6)nc(OCC56CCCN5CC(F)C6)nc4c3F)c12 (stereo unspecified) + COC1C(OC(N)=O)C(O)C(Oc2ccc3c(O)c(NC(=O)c4ccc(O)c(CC=C(C)C)c4)c(=O)oc3c2C)OC1(C)C
IC50 (second compound 0.0316 µM): > 10 µM | IC50 (second compound 0.1 µM): > 10 µM | IC50 (second compound 0.316 µM): > 10 µM | IC50 (second compound 1 µM): > 10 µM | IC50 (second compound 3.16 µM): > 10 µM | IC50 (second compound 10 µM): > 10 µM | viability, T/C [1]: 102% | viability, T/C [2]: 105% | viability, T/C [3]: 96.1% | viability, T/C [4]: 109% | viability, T/C [5]: 123% | viability, T/C [6]: 120% | viability, T/C [7]: 103% | viability, T/C [8]: 114% | viability, T/C [9]: 98.4% | viability, T/C [10]: 108% | viability, T/C [11]: 102% | viability, T/C [12]: 108% | viability, T/C [13]: 108% | viability, T/C [14]: 103% | viability, T/C [15]: 122% | viability, T/C [16]: 115% | viability, T/C [17]: 114% | viability, T/C [18]: 117% | viability, T/C [19]: 103% | viability, T/C [20]: 97.3% | viability, T/C [21]: 117% | viability, T/C [22]: 115% | viability, T/C [23]: 120% | viability, T/C [24]: 111% | viability, T/C [25]: 107% | viability, T/C [26]: 109% | viability, T/C [27]: 123% | viability, T/C [28]: 111% | viability, T/C [29]: 96.5% | viability, T/C [30]: 99.2% | viability, T/C [31]: 102% | viability, T/C [32]: 104% | viability, T/C [33]: 108% | viability, T/C [34]: 117% | viability, T/C [35]: 112% | viability, T/C [36]: 115%

CC(C)n1c(=O)n(C)c2cnc3cc(F)c(-c4ccc(OCCCN5CCCCC5)nc4)cc3c21 + COC1C(OC(N)=O)C(O)C(Oc2ccc3c(O)c(NC(=O)c4ccc(O)c(CC=C(C)C)c4)c(=O)oc3c2C)OC1(C)C
IC50 (second compound 0.0316 µM): > 10 µM | IC50 (second compound 0.1 µM): > 10 µM | IC50 (second compound 0.316 µM): > 10 µM | IC50 (second compound 1 µM): > 10 µM | IC50 (second compound 3.16 µM): > 10 µM | IC50 (second compound 10 µM): > 10 µM | viability, T/C [1]: 97.6% | viability, T/C [2]: 92.7% | viability, T/C [3]: 89.8% | viability, T/C [4]: 89.1% | viability, T/C [5]: 84.7% | viability, T/C [6]: 70.3% | viability, T/C [7]: 84.4% | viability, T/C [8]: 110% | viability, T/C [9]: 88.1% | viability, T/C [10]: 91.9% | viability, T/C [11]: 79.6% | viability, T/C [12]: 75.3% | viability, T/C [13]: 92.6% | viability, T/C [14]: 100% | viability, T/C [15]: 89.8% | viability, T/C [16]: 102% | viability, T/C [17]: 87.8% | viability, T/C [18]: 65.9% | viability, T/C [19]: 104% | viability, T/C [20]: 104% | viability, T/C [21]: 96.2% | viability, T/C [22]: 98.1% | viability, T/C [23]: 81.2% | viability, T/C [24]: 74% | viability, T/C [25]: 106% | viability, T/C [26]: 95% | viability, T/C [27]: 98.2% | viability, T/C [28]: 79.1% | viability, T/C [29]: 83.5% | viability, T/C [30]: 69.7% | viability, T/C [31]: 104% | viability, T/C [32]: 92.5% | viability, T/C [33]: 93.9% | viability, T/C [34]: 98.1% | viability, T/C [35]: 83% | viability, T/C [36]: 68.7%

CCc1cc2c(N3CCc4c(cc(Cn5ccnc5)cc4-c4cn(C)nc4C(F)(F)F)C3=O)cc(C)nc2c(OC)n1 + COC1C(OC(N)=O)C(O)C(Oc2ccc3c(O)c(NC(=O)c4ccc(O)c(CC=C(C)C)c4)c(=O)oc3c2C)OC1(C)C
IC50 (second compound 0.0316 µM): 2.8 µM | IC50 (second compound 0.1 µM): 1.45 µM | IC50 (second compound 0.316 µM): 1.64 µM | IC50 (second compound 1 µM): 1.75 µM | IC50 (second compound 3.16 µM): 2.12 µM | IC50 (second compound 10 µM): 1.22 µM | viability, T/C [1]: 89.1% | viability, T/C [2]: 78.2% | viability, T/C [3]: 75.6% | viability, T/C [4]: 71.5% | viability, T/C [5]: 45.7% | viability, T/C [6]: 25.3% | viability, T/C [7]: 105% | viability, T/C [8]: 80% | viability, T/C [9]: 65.4% | viability, T/C [10]: 58.9% | viability, T/C [11]: 43.9% | viability, T/C [12]: 24.5% | viability, T/C [13]: 106% | viability, T/C [14]: 90.2% | viability, T/C [15]: 67.8% | viability, T/C [16]: 63% | viability, T/C [17]: 39.6% | viability, T/C [18]: 23.5% | viability, T/C [19]: 114% | viability, T/C [20]: 79.6% | viability, T/C [21]: 76.3% | viability, T/C [22]: 63.3% | viability, T/C [23]: 41.1% | viability, T/C [24]: 25.9% | viability, T/C [25]: 91.2% | viability, T/C [26]: 86% | viability, T/C [27]: 75.4% | viability, T/C [28]: 62% | viability, T/C [29]: 43.7% | viability, T/C [30]: 25.4% | viability, T/C [31]: 83.2% | viability, T/C [32]: 73.8% | viability, T/C [33]: 62.7% | viability, T/C [34]: 56.6% | viability, T/C [35]: 35.8% | viability, T/C [36]: 22.1%
